Results published in ChEMBL document CHEMBL1208787 (Bioorg Med Chem Lett, 2010).

What was measured:
Rattus norvegicus [1] = assay: Antiinflammatory activity in rat assessed as inhibition of carrageenan-induced paw edema at 70 mg/kg, po after 4 hrs; assay type: functional
Mus musculus = assay: Analgesic activity in po dosed mouse assessed as decrease in tail flick tendency after 4 hrs by tail flick test; assay type: functional
Rattus norvegicus [2] = assay: Gastrointestinal toxicity in rat assessed as ulcerogenic index at 210 mg/kg, po; assay type: organism-based; design: dose 210 mg/kg, route oral; details: in vivo
Liver [3] = assay: Gastrointestinal toxicity in rat liver assessed as ulcerogenic activity-related malonaldehyde level per 100 mg of tissue at 210 mg/kg, po (RVb = 3.26 nmol); assay type: organism-based; design: dose 210 mg/kg, route oral; details: in vivo
Rattus norvegicus [4] = assay: Hepatotoxicity in po dosed rat assessed as effect on serum SGOT level (reference value: 143.71 +/- 1.1 U/mL); assay type: toxicity, organism-based; details: in vivo
Rattus norvegicus [5] = assay: Hepatotoxicity in po dosed rat assessed as effect on serum SGPT level (reference value: 32.46 +/- 0.76 U/mL); assay type: toxicity, organism-based; details: in vivo
Rattus norvegicus [6] = assay: Hepatotoxicity in po dosed rat assessed as effect on serum alkaline phosphatase level (reference value: 12.17 +/- 0.16 U/mL); assay type: toxicity, organism-based; details: in vivo
Rattus norvegicus [7] = assay: Hepatotoxicity in po dosed rat assessed as effect on total serum protein level (reference value: 1.72+/- 0.02 g/dl); assay type: toxicity, organism-based; details: in vivo
Rattus norvegicus [8] = assay: Hepatotoxicity in po dosed rat assessed as effect on total albumin level (reference value: 1.63 +/- 0.02 g/dl); assay type: toxicity, organism-based; details: in vivo
Rattus norvegicus [9] = assay: Antiinflammatory activity in rat assessed as inhibition of carrageenan-induced paw edema administered orally at dose equivalent to 70 mg/kg ibuprofen after 4 hrs; assay type: functional; details: route oral
Rattus norvegicus [10] = assay: Gastrointestinal toxicity in rat assessed as ulcerogenic index administered orally at dose equivalent to 210 mg/kg ibuprofen; assay type: organism-based; design: dose 210 mg/kg, route oral; details: in vivo, po
[11] = test system: Stomach (Rattus norvegicus); assay: Gastrointestinal toxicity in rat gastric mucosa assessed as ulcerogenic activity-related malonaldehyde level per 100 mg of tissue administered orally at dose equivalent to 210 mg/kg ibuprofen (RVb = 3.26 nmol); details: in vivo, po
Liver [12] = assay: Hepatotoxicity in po dosed rat liver assessed as effect on hepatocyte morphological changes by histopathological analysis; assay type: toxicity, organism-based; details: hepatocytes

Compound	inhibition in vivo at 70 mg/kg (Rattus norvegicus [1])	inhibition (INH) (Mus musculus)	UI (Rattus norvegicus [2])	Activity (Liver [3])	Activity (Rattus norvegicus [4])	Activity (Rattus norvegicus [5])	Activity (Rattus norvegicus [6])	Activity (Rattus norvegicus [7])	Activity (Rattus norvegicus [8])	inhibition in vivo (Rattus norvegicus [9])	UI (Rattus norvegicus [10])	Activity [11]	Activity (Liver [12])
CC(C)Cc1ccc(C(C)C(=O)O)cc1 (stereo not drawn) [IBUPROFEN]	82.7%	73.52%	2.315	7.51 nmol	140.14 U/ml	34.26 U/ml	11.67 U/ml	1.74 g/dL	1.71 g/dL	–	–	–	–
Cc1ccccc1-c1nn2c(-c3ccncc3)nnc2s1	–	62.54%	–	–	–	–	–	–	–	79.8%	0.471	4.16 nmol	–
O=[N+]([O-])c1ccc(-c2nnc(-c3ccncc3)o2)cc1	–	44.05%	–	–	–	–	–	–	–	54%	1.762	6.85 nmol	–
c1ccc(Oc2nnc(-c3ccncc3)o2)cc1	–	62.14%	–	–	–	–	–	–	–	71.2%	0.731	3.33 nmol	–
c1ccc(Oc2nn3c(-c4ccncc4)nnc3s2)cc1	–	52.27%	–	–	–	–	–	–	–	63.5%	1.5	7.32 nmol	–
O=[N+]([O-])c1ccc(-c2nn3c(-c4ccncc4)nnc3s2)cc1	–	74.32%	–	–	138.32 U/ml	29.34 U/ml	12.76 U/ml	1.78 g/dL	1.77 g/dL	86.3%	0.324	3.47 nmol	Non-toxic
c1ccc(-c2nnc(-c3ccncc3)o2)cc1	–	68.21%	–	–	–	–	–	–	–	82.6%	1.667	–	–
NNC(=O)c1ccncc1 [ISONIAZID]	–	45.9%	–	–	151.25 U/ml	40.21 U/ml	8.31 U/ml	1.55 g/dL	1.48 g/dL	51.6%	3.75	–	–
Cc1ccccc1-c1nnc(-c2ccncc2)o1	–	31.81%	–	–	–	–	–	–	–	43.4%	2.266	7.33 nmol	–
Clc1ccc(-c2nn3c(-c4ccncc4)nnc3s2)c(Cl)c1	–	61.81%	–	–	–	–	–	–	–	69.3%	0.75	6.71 nmol	–
CC(=O)Oc1ccccc1-c1nnc(-c2ccncc2)o1	–	57.57%	–	–	–	–	–	–	–	63.4%	0.831	5.19 nmol	–
Clc1ccccc1-c1nn2c(-c3ccncc3)nnc2s1	–	37.27%	–	–	–	–	–	–	–	45.4%	1.417	8.8 nmol	–
Sc1nnc(-c2ccncc2)o1	–	54.28%	–	–	–	–	–	–	–	62.9%	1.327	5.78 nmol	–
Clc1ccccc1-c1nnc(-c2ccncc2)o1	–	29.54%	–	–	–	–	–	–	–	37.7%	2	8.11 nmol	–
c1ccc(-c2nn3c(-c4ccncc4)nnc3s2)cc1	–	56.06%	–	–	–	–	–	–	–	66.4%	0.666	5.78 nmol	–
CC(=O)Oc1ccccc1-c1nn2c(-c3ccncc3)nnc2s1	–	25%	–	–	–	–	–	–	–	39.8%	2.25	8.82 nmol	–
Clc1ccc(-c2nnc(-c3ccncc3)o2)c(Cl)c1	–	70.37%	–	–	136.24 U/ml	28.67 U/ml	13.79 U/ml	1.76 g/dL	1.72 g/dL	84%	0.386	3.29 nmol	Non-toxic
